According to patent EP4818330A1, “PHARMACEUTICAL PREPARATION FOR DIAGNOSING AND TREATING ALZHEIMER'S DISEASE” (Shanghai East Hospital Tongji University, priority 2023, dated 2025):

What was measured:
293T cell line = assay: CCK8 cell viability (toxicity) assay in 293T cell line; format: cell-based; settings: Homo sapiens, HEK-293T; CCK8 toxicity test, 293T cell line
Description: (§1) The CCK8 cell viability assay (CCK8) was adopted. Its principle is mainly based on the reduction reaction of WST-8 (chemical name: 2-(2-methoxy-4-nitrophenyl)-3-(4-nitrophenyl)-5-(2,4-disulfophenyl)-2H-tetrazolium monosodium salt). In the presence of living cells, WST-8 can be reduced by dehydrogenases in mitochondria to generate a highly water-soluble orange-yellow formazan product. The color intensity is directly proportional to the number of living cells, wherein the quantity of living cells can be indirectly reflected by measuring the absorbance of formazan products (typically at a wavelength of 450 nm). The CCK-8 assay is widely used in cell proliferation assay, cytotoxicity assay and tumor drug sensitivity test.
In in vitro experiments, the compound stock solution was prepared into 10 mM with DMSO and diluted with a culture medium before use. The 293T cell line was used for preliminary concentration screening of the compound, wherein concentration gradients were set as follows: 5 µmol, 10 µmol, 20 µmol, 40 µmol, 80 µmol and 160 µmol. After the cells were treated with the compound for 24 h, the CCK8 detection kit was used, wherein the cell viability was calculated based on the absorbance values detected by a microplate reader. Data processing was performed using GraphPad Prism software to plot the IC50 curve.

primary neurons = assay: CCK8 cell viability (toxicity) assay in primary neurons; format: cell-based, mouse; settings: Mus musculus, Primary neuron, CCK8 toxicity test
Description: as §1
Primary hippocampal neuron culture: After ICR fetal mice at 18-21 days of gestation (E18-E21) were anesthetized, the fetal mice were dissected in a clean area and immersed in 75% ethanol for 1-2 min. The mouse head was taken out, the surface skull was removed with micro-scissors, and the brain tissue was transferred to an anatomical dissociation solution. Under a microscope, blood vessels and meninges were removed, hippocampal tissue was isolated, the extracted hippocampal tissue was placed in a 3.5 cm dish containing the anatomical dissociation solution, and the hippocampal tissue was cut into small fragments using micro-scissors. The minced hippocampal tissue was transferred to a 7 ml EP tube using a pipette gun. The hippocampal tissue hereinabove was centrifuged at 1000 rpm for 3-5 min, and the anatomical separation solution was discarded. 0.5-1 ml of papain digestion solution was added to the EP tube hereinabove, and the EP tube was placed in a 37°C incubator for 30 min. 300 µL of Trituration buffer 300 (DNase) and 5 mL of complete medium were added, and the hippocampal tissue was gently pipetted more than 10 times. The cell suspension was allowed to stand for 3 min, and 3-4 ml of supernatant was gently aspirated into a 15 ml tube using a pipette. 3-4 ml of complete medium was added again, and the hippocampal tissue was gently pipetted more than 10 times. Step 8 was repeated, and 3-4 ml of supernatant was transferred to the same 15 ml tube again. The previous step was repeated again. The collected supernatant was centrifuged at 1000 rpm, the supernatant was discarded, and 5 ml of complete medium was added. The mixture was gently pipetted and suspended, and then centrifuged again at 1000 rpm for 5 min. The complete medium was added to resuspend the cells, and then a portion of the cells was aspirated for counting. Generally, when neuronal cells were planted in a 24-well plate, the concentration of the cell suspension was generally 2×10^5/ml, and 500 µl of cells is inoculated per well. The resuspended neuron cells with a diluted ratio were seeded onto a glass slide treated with PDL, then the glass slide was placed in a 37°C incubator for 10 min, an appropriate amount of complete medium was added, and then the culture is continued in the incubator.

O=C(NC1CN(c2ccncn2)CC1CO)c1ccc2ncccc2c1 (centres unmarked) [compound of Formula II, N-[4-(HYDROXYMETHYL)-1-(PYRIMIDIN-4-YL)PYRROLIDIN-3-YL]QUINOLINE-6-CARBOXAMIDE]
IC50 (293T cell line): 38.6 µM | IC50 (primary neurons): 1.67 µM
